Reference: PubChem BioAssay AID248 (DTP/NCI, 2004)
Where “and” joins values, the source holds several entries; their conditions need not be identical. Equal entries are not always repeated. Inconclusive results and toxic doses are left out. Cut-off read from the data, not from the text of the source: active = T/C of 150% or more; inactive = T/C below 125%.

System: L1210 leukemia ip in BDF1 mice, survival T/C
Assay: NCI In Vivo Anticancer Drug Screen. Data for tumor model L1210 Leukemia (intraperitoneal) in B6D2F1 (BDF1) mice
Conditions: higher = longer survival
Summary of the method: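 Antitumor effect is assessed in tumor-bearing animals. Survival in the compound arm is compared with a vehicle-dosed control arm and expressed as their quotient.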

[1] = endpoint: mean survival time, dose: 100.0 mg/kg/injection, schedule: Q01DX009 (ip), vehicle: saline
[2] = endpoint: mean survival time, dose: 50.0 mg/kg/injection, schedule: Q01DX009 (ip), vehicle: Klucel (hydroxypropylcellulose) (HPC)
[3] = endpoint: mean survival time, dose: 100.0 mg/kg/injection, schedule: Q01DX009 (ip), vehicle: Klucel (hydroxypropylcellulose) (HPC)
[4] = endpoint: mean survival time, dose: 200.0 mg/kg/injection, schedule: Q01DX009 (ip), vehicle: Klucel (hydroxypropylcellulose) (HPC)
[5] = endpoint: mean survival time, dose: 100.0 mg/kg/injection, schedule: Q04DX003 (ip), vehicle: saline with Tween-80
[6] = endpoint: mean survival time, dose: 200.0 mg/kg/injection, schedule: Q04DX003 (ip), vehicle: saline with Tween-80
[7] = endpoint: mean survival time, dose: 100.0 mg/kg/injection, schedule: Q04DX003 (ip), vehicle: Klucel (hydroxypropylcellulose) (HPC)
[8] = endpoint: mean survival time, dose: 200.0 mg/kg/injection, schedule: Q04DX003 (ip), vehicle: Klucel (hydroxypropylcellulose) (HPC)
[9] = endpoint: mean survival time, dose: 400.0 mg/kg/injection, schedule: Q04DX003 (ip), vehicle: Klucel (hydroxypropylcellulose) (HPC)

Measured: T/C

O=C(O)C1CCCC[N-]1.O=C(O)C1CCCC[N-]1.O=C(O)C1CCCC[N-]1.O=C(O)C1CCCC[N-]1.[Cl][Rh][Cl] (configuration not stated)
inactive: endpoint: mean survival time, dose: 12.5 mg/kg/injection, schedule: Q01DX008 (ip), vehicle: water 98 % of control | endpoint: mean survival time, dose: 25.0 mg/kg/injection, schedule: Q01DX008 (ip), vehicle: water 98 % of control | endpoint: mean survival time, dose: 50.0 mg/kg/injection, schedule: Q01DX008 (ip), vehicle: water 103 % of control | endpoint: mean survival time, dose: 100.0 mg/kg/injection, schedule: Q01DX008 (ip), vehicle: water 97 % of control | [1] 93 % of control | endpoint: mean survival time, dose: 100.0 mg/kg/injection, schedule: Q04DX003 (ip), vehicle: saline 102 % of control | endpoint: mean survival time, dose: 200.0 mg/kg/injection, schedule: Q04DX003 (ip), vehicle: saline 100 % of control | endpoint: mean survival time, dose: 400.0 mg/kg/injection, schedule: Q04DX003 (ip), vehicle: saline 96 % of control

CC1OC(=O)C(C)(Br)OC1=O (configuration not stated)
inactive: endpoint: mean survival time, dose: 100.0 mg/kg/injection, schedule: Q01DX001 (ip), vehicle: acetone 93 % of control | endpoint: mean survival time, dose: 200.0 mg/kg/injection, schedule: Q01DX001 (ip), vehicle: acetone 104 % of control

O=[N+]([O-])c1cccs1
inactive: [2] 97 % of control | [3] 108 % of control | endpoint: mean survival time, dose: 100.0 mg/kg/injection, schedule: Q04DX003 (ip), vehicle: other 104 % of control | endpoint: mean survival time, dose: 200.0 mg/kg/injection, schedule: Q04DX003 (ip), vehicle: other 103 % of control

CC(=O)NCC(C)OC(C)=O (configuration not stated)
inactive: [1] 104 % of control | endpoint: mean survival time, dose: 200.0 mg/kg/injection, schedule: Q01DX009 (ip), vehicle: saline 97 % of control | endpoint: mean survival time, dose: 400.0 mg/kg/injection, schedule: Q01DX009 (ip), vehicle: saline 97 % of control

Nc1ncnc2c1ncn2C1OC(CCO)C(O)C1O (configuration not stated)
inactive: endpoint: mean survival time, dose: 100.0 mg/kg/injection, schedule: Q01DX001 (ip), vehicle: carboxymethylcellulose (CMC) 100 % of control | endpoint: mean survival time, dose: 200.0 mg/kg/injection, schedule: Q01DX001 (ip), vehicle: carboxymethylcellulose (CMC) 96 % of control | endpoint: mean survival time, dose: 400.0 mg/kg/injection, schedule: Q01DX001 (ip), vehicle: carboxymethylcellulose (CMC) 93 % of control

CCCOc1ccc(-c2nc(-c3ccc(N=Cc4ccc(N(CCOS(C)(=O)=O)CCOS(C)(=O)=O)cc4Cl)cc3)cs2)cc1
inactive: [2] 107 % of control | endpoint: mean survival time, dose: 100.0 mg/kg/injection, schedule: Q01DX001 (ip), vehicle: Klucel (hydroxypropylcellulose) (HPC) 102 % of control | [3] 100 % of control | endpoint: mean survival time, dose: 200.0 mg/kg/injection, schedule: Q01DX001 (ip), vehicle: Klucel (hydroxypropylcellulose) (HPC) 100 % of control | [4] 107 % of control | endpoint: mean survival time, dose: 400.0 mg/kg/injection, schedule: Q01DX001 (ip), vehicle: Klucel (hydroxypropylcellulose) (HPC) 96 % of control

N=C(N)c1ccc(Nc2ccc(C(=N)N)cc2)cc1
inactive: endpoint: mean survival time, dose: 3.0 mg/kg/injection, schedule: Q01DX010 (ip), vehicle: saline 95 % of control and 91 % of control | endpoint: mean survival time, dose: 6.0 mg/kg/injection, schedule: Q01DX010 (ip), vehicle: saline 95 % of control and 91 % of control | endpoint: mean survival time, dose: 12.0 mg/kg/injection, schedule: Q01DX010 (ip), vehicle: saline 94 % of control and 97 % of control | endpoint: mean survival time, dose: 15.0 mg/kg/injection, schedule: Q02DX010 (ip), vehicle: carboxymethylcellulose (CMC) 99 % of control | endpoint: mean survival time, dose: 24.0 mg/kg/injection, schedule: Q01DX010 (ip), vehicle: saline 89 % of control and 91 % of control | endpoint: mean survival time, dose: 30.0 mg/kg/injection, schedule: Q02DX010 (ip), vehicle: carboxymethylcellulose (CMC) 103 % of control | endpoint: mean survival time, dose: 44.0 mg/kg/injection, schedule: Q02DX010 (ip), vehicle: carboxymethylcellulose (CMC) 89 % of control | endpoint: mean survival time, dose: 47.0 mg/kg/injection, schedule: Q01DX001 (ip), vehicle: water 97 % of control | endpoint: mean survival time, dose: 66.0 mg/kg/injection, schedule: Q02DX010 (ip), vehicle: carboxymethylcellulose (CMC) 77 % of control | endpoint: median survival time, dose: 6.0 mg/kg/injection, schedule: Q01DX009 (ip), vehicle: saline 105 % of control and 112 % of control | endpoint: median survival time, dose: 12.0 mg/kg/injection, schedule: Q01DX009 (ip), vehicle: saline 112 % of control | endpoint: median survival time, dose: 24.0 mg/kg/injection, schedule: Q01DX009 (ip), vehicle: saline 87 % of control

Cc1ccc(CNC(=O)Nc2cccc(C(F)(F)F)c2)cc1C
inactive: endpoint: mean survival time, dose: 100.0 mg/kg/injection, schedule: Q01DX009 (ip), vehicle: gum acacia 89 % of control | endpoint: mean survival time, dose: 200.0 mg/kg/injection, schedule: Q01DX009 (ip), vehicle: gum acacia 89 % of control

CC(C)C12CCC(=O)C=C1CCCC2OC(=O)c1ccccc1C(=O)O (configuration not stated)
inactive: [5] 101 % of control | [6] 100 % of control

C(=N\c1oc(-c2ccccc2)nc1SCc1ccccc1)/c1ccccc1
inactive: endpoint: mean survival time, dose: 100.0 mg/kg/injection, schedule: Q04DX002 (ip), vehicle: Klucel (hydroxypropylcellulose) (HPC) 96 % of control | endpoint: mean survival time, dose: 200.0 mg/kg/injection, schedule: Q04DX002 (ip), vehicle: Klucel (hydroxypropylcellulose) (HPC) 96 % of control | endpoint: mean survival time, dose: 400.0 mg/kg/injection, schedule: Q04DX002 (ip), vehicle: Klucel (hydroxypropylcellulose) (HPC) 120 % of control

CC(=O)/C(C)=N/Nc1ccccc1
inactive: [5] 101 % of control | [6] 106 % of control | endpoint: mean survival time, dose: 400.0 mg/kg/injection, schedule: Q04DX003 (ip), vehicle: saline with Tween-80 106 % of control

CN=C(Nc1ccc(Cl)c(Cl)c1)C(C)C
inactive: endpoint: mean survival time, dose: 6.25 mg/kg/injection, schedule: Q04DX002 (ip), vehicle: DMSO 98 % of control | endpoint: mean survival time, dose: 12.5 mg/kg/injection, schedule: Q04DX002 (ip), vehicle: DMSO 95 % of control | endpoint: mean survival time, dose: 25.0 mg/kg/injection, schedule: Q04DX002 (ip), vehicle: DMSO 94 % of control and 106 % of control | endpoint: mean survival time, dose: 44.0 mg/kg/injection, schedule: Q01DX Z (ip), vehicle: methylcellulose (MC) 91 % of control | endpoint: mean survival time, dose: 50.0 mg/kg/injection, schedule: Q04DX002 (ip), vehicle: DMSO 97 % of control | endpoint: mean survival time, dose: 66.0 mg/kg/injection, schedule: Q01DX Z (ip), vehicle: methylcellulose (MC) 98 % of control | endpoint: mean survival time, dose: 100.0 mg/kg/injection, schedule: Q01DX Z (ip), vehicle: methylcellulose (MC) 101 % of control

O=C1OC(c2ccc3c(c2)OCO3)C(C(=O)CCl)c2ccccc21 (configuration not stated)
inactive: [5] 97 % of control | [6] 93 % of control

Cn1cnc(N)c1/C(N)=N/O
inactive: endpoint: mean survival time, dose: 6.25 mg/kg/injection, schedule: Q01DX005 (ip), vehicle: saline 100 % of control | endpoint: mean survival time, dose: 12.5 mg/kg/injection, schedule: Q01DX005 (ip), vehicle: saline 98 % of control | endpoint: mean survival time, dose: 25.0 mg/kg/injection, schedule: Q01DX005 (ip), vehicle: saline 107 % of control | endpoint: mean survival time, dose: 50.0 mg/kg/injection, schedule: Q01DX005 (ip), vehicle: saline 91 % of control

CCN(CC)CCNc1ccc(CO)c(Cl)c1
inactive: endpoint: mean survival time, dose: 31.25 mg/kg/injection, schedule: Q01DX009 (ip), vehicle: Klucel (hydroxypropylcellulose) (HPC) 92 % of control | endpoint: mean survival time, dose: 62.5 mg/kg/injection, schedule: Q01DX009 (ip), vehicle: Klucel (hydroxypropylcellulose) (HPC) 89 % of control | endpoint: mean survival time, dose: 125.0 mg/kg/injection, schedule: Q01DX009 (ip), vehicle: Klucel (hydroxypropylcellulose) (HPC) 106 % of control

O=C1OCCC1C(=O)C(O)(C(F)(F)F)C(F)(F)F (configuration not stated)
inactive: endpoint: mean survival time, dose: 100.0 mg/kg/injection, schedule: Q01DX009 (ip), vehicle: other 96 % of control | endpoint: mean survival time, dose: 200.0 mg/kg/injection, schedule: Q01DX009 (ip), vehicle: other 100 % of control | endpoint: mean survival time, dose: 400.0 mg/kg/injection, schedule: Q01DX009 (ip), vehicle: other 94 % of control

O=C1c2cccc(S(=O)(=O)O)c2C(=O)c2cccc([N+](=O)[O-])c21
inactive: [7] 98 % of control | [8] 91 % of control | [9] 94 % of control

CCCCCCCCOc1ccc(C(=O)c2ccccc2)c(O)c1
inactive: [3] 100 % of control | [7] 94 % of control | [4] 101 % of control | [8] 96 % of control | endpoint: mean survival time, dose: 400.0 mg/kg/injection, schedule: Q01DX009 (ip), vehicle: Klucel (hydroxypropylcellulose) (HPC) 94 % of control | [9] 94 % of control

COc1ccc(C[As+](Cc2ccccc2)(Cc2ccc(OC)cc2)Cc2ccc(OC)cc2)cc1
inactive: endpoint: mean survival time, dose: 5.0 mg/kg/injection, schedule: Q01DX001 (ip), vehicle: saline 103 % of control | endpoint: mean survival time, dose: 10.0 mg/kg/injection, schedule: Q01DX001 (ip), vehicle: saline 98 % of control | endpoint: mean survival time, dose: 20.0 mg/kg/injection, schedule: Q01DX001 (ip), vehicle: saline 96 % of control

COc1ccc2c(c1C)CCC1(C(=O)O)CC(C)C(O)CC21 (configuration not stated)
inactive: endpoint: mean survival time, dose: 100.0 mg/kg/injection, schedule: Q01DX009 (ip), vehicle: saline sonified 98 % of control | endpoint: mean survival time, dose: 200.0 mg/kg/injection, schedule: Q01DX009 (ip), vehicle: saline sonified 96 % of control | endpoint: mean survival time, dose: 400.0 mg/kg/injection, schedule: Q01DX009 (ip), vehicle: saline sonified 96 % of control
